# Test results from patent US20230165278A1, “NUTRITIONAL SUPPLEMENTS COMPRISING DIETARY METAL COMPLEXES IN A MATRIX OF CELLULOSIC MATERIALS” (North Carolina State University, priority 2020, published 2023).
# Legend:
# [1] = cited from earlier work; for Solubility (in words): background statement
# [2] = Swine trial (16 barrows, 14 days): zinc in ileal, cecal and fecal samples and zinc digestibility; format: in vivo; settings: pigs
# Source text: A representative animal trial used a group of 16 barrows (castrated male pigs) including of 8 pairs of littermates. […] The littermate pairs were divided in half and randomly assigned to either the control diet or the test diet containing a composition of the presently disclosed subject matter. Each diet was formulated using a basal diet primarily of corn and soybean meal containing 50 ppm Zn from an added vitamin premix. The control diet contained an additional 50 ppm Zn from Basic Zinc Chloride (Zn5Cl2(OH)8.H2O) and the test diet contained an additional 50 ppm Zn from a composition of the presently disclosed subject matter for a total of 100 ppm Zn for each diet to meet the National Research Council recommendation for zinc supplementation of pigs of this size. The composition of the presently disclosed subject matter was prepared as described herein above.
# Pigs were fed twice daily at 0800 and 1700 for the entirety of the trial. Daily feed intake for maintenance was determined for each pig at 4% of initial body weight at the beginning of the trial. Each pig was housed in a separate metabolism crate allowing for the quantitative collection of feces and urine. The trial lasted for a total of 14 days; the first 10 days allowed for the pigs to adjust to their new environments and diets. Days 11-13 for were used for twice-daily feces and urine collection. On day 14 all pigs were weighed and humanely euthanized prior to dissections to obtain ileal and cecal content samples. Feces samples and urine samples were pooled daily and stored at −20 C until ready for analysis. Fecal, ileal, and cecal samples were dried at 64 C in a drying oven until no change in mass was observed which took between 48-96 hours for most samples. After being dried completely, samples were sent to Missouri Field Laboratories for analysis of Zn, Titanium dioxide which was used as a feed marker, and proximate nutrient analysis. Pigs gained an average of 7.34 kilograms per pig during the 14 day trial.
# The control diet, containing all supplemental zinc from basic zinc chloride, contained 134 ppm zinc. […] This may be indicative of the composition of the presently disclosed subject matter having higher levels of zinc than used in formulation of the diets.
# Using the concentration of zinc found in the feed and ileal, cecal and fecal samples, zinc digestibility by the following equation: 100−[100*(zinc in feed/zinc in feces)]. Since the amounts of zinc present in the diets were over the zinc requirement of pigs of this size and age, the extra zinc in the diets employing a composition of the presently disclosed subject matter (referred to as “Experimental” in Table 2) may have affected the zinc digestibility results.
# [3] = Solubility in water; format: physicochemical; settings: description of the patent's own materials
# [4] = 100-[100*(zinc in feed/zinc in sample)]
compound,measurement,setting,value
[O]=[Zn] [Zinc oxide],Solubility (in words),[1],relatively insoluble except in acid
[Cl-].[Cl-].[Zn+2] [ZnCl2],Solubility (amount that dissolves in 1 L of water),[1]; in 1 L of water,4 kg
"O=C([O-])[C@H](O)[C@@H](O)[C@H](O)[C@H](O)CO.O=C([O-])[C@H](O)[C@@H](O)[C@H](O)[C@H](O)CO.[Zn+2] [zinc gluconate, Zn(O2C(CHOH)4CH2OH)2]",Solubility (in words),[1],highly soluble
Zn5Cl2(OH)8.H2O [Control],Percent more zinc in ileal contents than in cecal contents,[2],2.2%
same,Concentration of Zinc found in contents of the cecum,"[2]; dried cecal contents, day 14, diet zinc found 134 ppm (control) / 152 ppm (experimental)",399 ppm
same,Concentration of Zinc found in feces,"[2]; dried feces collected days 11-13, diet zinc found 134 ppm (control) / 152 ppm (experimental)",678 ppm
same,Concentration of Zinc found in contents of the ileum,"[2]; dried ileal contents, day 14, diet zinc found 134 ppm (control) / 152 ppm (experimental)",408 ppm
same,"Percent Digestibility of Zinc in Feed, Fecal",[2]; 100-[100*(zinc in feed/zinc in feces)],80.2%
same,"Percent Digestibility of Zinc in Feed, Cecal",[2]; [4],66.1%
same,"Percent Digestibility of Zinc in Feed, Ileal",[2]; [4],62.6%
same,Share of total zinc excreted in feces,"[2]; fecal zinc vs total of ileal, cecal and fecal zinc",45.7%
same,Share of total zinc retained in ilium+cecum,"[2]; ileal+cecal zinc vs total of ileal, cecal and fecal zinc",54.3%
same,Solubility in water / aqueous solution (in words),[3],highly insoluble in water
